Assay results: PubChem BioAssay (NCI)
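Each compound was tested at five concentrations against cells in 96-well plates for 48 hours. At the GI50, growth is halved. The concentration for full growth arrest is given as TGI.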

Legend:
Assay in all cases: NCI-60 cell line screen, 48 h
HT29 colon = system: HT29 colon
MALME-3M melanoma = system: MALME-3M melanoma
MDA-MB-435 = system: MDA-MB-435
MOLT-4 leukemia = system: MOLT-4 leukemia
RPMI-8226 leukemia = system: RPMI-8226 leukemia
SF-268 CNS = system: SF-268 CNS
SR leukemia = system: SR leukemia
TK-10 renal = system: TK-10 renal
U251 CNS = system: U251 CNS
UACC-257 melanoma = system: UACC-257 melanoma

## COC(=O)[C@]12CC[C@@H](C)[C@H](C)[C@@H]1C1=CC[C@@H]3[C@@]4(C)C[C@@H](O)[C@H](O)[C@@](C)(CO)[C@@H]4[C@H](O)C[C@@]3(C)[C@]1(C)CC2
HT29 colon
  GI50: 17.1 µM
  TGI: 36.3 µM
MALME-3M melanoma
  GI50: 13 µM
  TGI: 32 µM
MDA-MB-435
  GI50: 13 µM
  TGI: 27.3 µM
MOLT-4 leukemia
  GI50: 4.58 µM
  TGI: 25.6 µM
RPMI-8226 leukemia
  GI50: 5.18 µM
  TGI: 31.3 µM
SF-268 CNS
  GI50: 12.6 µM
  TGI: 27.5 µM
SR leukemia
  GI50: 11.9 µM
  TGI: 40.8 µM
TK-10 renal
  GI50: 16.8 µM
  TGI: 31.5 µM
U251 CNS
  GI50: 17.2 µM
  TGI: 40.9 µM
UACC-257 melanoma
  GI50: 16.8 µM
  TGI: 35.8 µM

## CCOc1ccc(NC2=CC(=O)C(=O)c3ccccc32)cc1
HT29 colon
  TGI: 15.8 µM
MALME-3M melanoma
  TGI: 3.56 µM
MDA-MB-435
  TGI: 3.19 µM
MOLT-4 leukemia
  TGI: 80.1 µM
RPMI-8226 leukemia
  TGI: 26.2 µM
SF-268 CNS
  TGI: 22.4 µM
SR leukemia
  TGI: 17.6 µM
TK-10 renal
  TGI: 21.6 µM
U251 CNS
  TGI: 13.1 µM
UACC-257 melanoma
  TGI: 3.04 µM

## O=C(Nc1nn2c(-c3cc(C(F)(F)F)cc(C(F)(F)F)c3)nnc2s1)C1CCCC1
HT29 colon
  GI50: 1.11 µM
  TGI: > 32.5 µM
MALME-3M melanoma
  GI50: 0.27 µM
  TGI: 2.93 µM
MDA-MB-435
  GI50: 0.424 µM
  TGI: > 39.8 µM
MOLT-4 leukemia
  GI50: 0.643 µM
  TGI: 4.53 µM
RPMI-8226 leukemia
  GI50: 0.368 µM
  TGI: > 25.6 µM
SF-268 CNS
  GI50: 1.08 µM
  TGI: > 100 µM
SR leukemia
  GI50: 0.942 µM
  TGI: 6.21 µM
TK-10 renal
  GI50: 1.79 µM
  TGI: > 100 µM
U251 CNS
  GI50: 0.854 µM
  TGI: > 100 µM
UACC-257 melanoma
  GI50: 0.419 µM
  TGI: 3.49 µM

## CCCCCCCCCCSC(=N)N (tested in a mixture with another compound)
HT29 colon
  GI50: 1.78 µM
  TGI: 4.34 µM
MALME-3M melanoma
  GI50: 2.24 µM
  TGI: 5.07 µM
MDA-MB-435
  GI50: 1.7 µM
  TGI: 3.27 µM
MOLT-4 leukemia
  GI50: 1.85 µM
  TGI: 5.51 µM
RPMI-8226 leukemia
  GI50: 2.53 µM
  TGI: 6.31 µM
SF-268 CNS
  GI50: 4.01 µM
  TGI: 17.6 µM
SR leukemia
  GI50: 2.34 µM
  TGI: 6.9 µM
TK-10 renal
  GI50: 1.95 µM
  TGI: 4.19 µM
U251 CNS
  GI50: 1.77 µM
  TGI: 3.62 µM
UACC-257 melanoma
  GI50: 2.46 µM
  TGI: 5.93 µM

## C=C(C)C(=O)O[C@@H]1C[C@@]2(C)O[C@@H]2C[C@H](O)/C(C)=C/[C@H]2OC(=O)C(=C)[C@@H]21
HT29 colon
  TGI: > 100 µM
MALME-3M melanoma
  TGI: 57.2 µM
MDA-MB-435
  TGI: > 100 µM
MOLT-4 leukemia
  TGI: > 100 µM
RPMI-8226 leukemia
  TGI: > 100 µM
SF-268 CNS
  TGI: > 100 µM
SR leukemia
  TGI: > 100 µM
TK-10 renal
  TGI: > 100 µM
U251 CNS
  TGI: > 100 µM
UACC-257 melanoma
  TGI: > 100 µM

## CN(C)c1ccc(/C=N/NC(=S)Nc2ccccc2)cc1
HT29 colon
  TGI: > 100 µM
MALME-3M melanoma
  TGI: > 100 µM
MDA-MB-435
  TGI: > 100 µM
MOLT-4 leukemia
  TGI: > 100 µM
RPMI-8226 leukemia
  TGI: > 100 µM
SF-268 CNS
  TGI: > 100 µM
SR leukemia
  TGI: > 100 µM
TK-10 renal
  TGI: > 100 µM
U251 CNS
  TGI: > 100 µM
UACC-257 melanoma
  TGI: > 100 µM

## CC[C@@H](c1ccc(O)c(O)c1)[C@@H](CC)c1ccc(O)c(O)c1
HT29 colon
  GI50: 11.9 µM
  TGI: 58.2 µM
MALME-3M melanoma
  GI50: 3.91 µM
  TGI: 19.8 µM
MDA-MB-435
  GI50: 3.47 µM
  TGI: 15.1 µM
MOLT-4 leukemia
  GI50: 4.21 µM
  TGI: 22.5 µM
RPMI-8226 leukemia
  GI50: 4.31 µM
  TGI: 26.3 µM
SF-268 CNS
  GI50: 17.9 µM
  TGI: 37.5 µM
SR leukemia
  GI50: 4.17 µM
  TGI: > 100 µM
TK-10 renal
  GI50: 26 µM
  TGI: 70.3 µM
U251 CNS
  GI50: 15.8 µM
  TGI: 37.8 µM
UACC-257 melanoma
  GI50: 14.9 µM
  TGI: 38.1 µM
